In brackets after ≈: the same amount, converted by molar mass. Like-named read-outs stand apart in the source and are kept apart here.
Legend:
[1] = system: Mycobacterium smegmatis SG 987; type: cell-based
[2] = system: M. vaccae IMET 10 10670; type: cell-based
[3] = system: M. fortuitum B; settings: Mycolicibacterium fortuitum, read-out: MIC M.fortuitum
[4] = system: Mycobacterium tuberculosis clinical isolate 6341; type: cell-based
[5] = system: Mycobacterium tuberculosis clinical isolate 6374; type: cell-based
[6] = system: Mycobacterium tuberculosis H37Rv and clinical isolates 6341 and 6374; test: MIC and MBC, classical method, over several strains; type: cell-based; settings: for MBC: read-out: MBC (µg/mL) mean; for MIC: read-out: MIC (µg/mL) mean
[7] = system: Mycobacterium tuberculosis H37Rv; test: Murine TB model (experimental hematogenously disseminated tuberculosis); type: in vivo, BALB/c line mice; settings: for Survival of animals: Groups 4/5, 25 mg/kg oral
[8] = Mycolicibacterium smegmatis, SG987, read-out: MIC M. smegmatis
[9] = Mycolicibacterium vaccae, IMET1010670, read-out: MIC M.vaccae
[10] = Mycolicibacterium smegmatis, SG987; read-out: MIC M. smegmatis
[11] = Mycolicibacterium vaccae, IMET1010670; read-out: MIC M.vaccae
[12] = 25 mg/kg orally, 42 days after inoculation of the culture medium

**Q.** How did the MIC [1, 8] turn out when `CC1COC2(CCN(c3nc(=O)c4cc([N+](=O)[O-])cc([N+](=O)[O-])c4s3)CC2)O1` (stereo not drawn) [Compound 4, 2-(2-methyl-1,4-dioxa-8-azaspiro[4.5]decyl)-6,8-dinitro-1,3-benzothiazin-4-one] was run?
**A.** 0.2 µg/mL (≈ 0.49 µM)

**Q.** And the MIC [2, 9]?
**A.** 3 ng/mL (≈ 0.00735 µM)

**Q.** What about the MIC [3] of the same molecule?
**A.** 3 ng/mL (≈ 0.00735 µM)

**Q.** Which MIC [1, 10] does the source give for `CC1COC2(CCN(c3nc(=O)c4cc(C#N)cc([N+](=O)[O-])c4s3)CC2)O1` (stereo not drawn) [Compound 10, 2-(2-methyl-1,4-dioxa-8-azaspiro[4.5]dec-8-yl)-8-nitro-4-oxo-1,3-benzothiazine-6-carbonitrile] here?
**A.** 0.025 µg/mL (≈ 0.0644 µM)

**Q.** And the MIC [2, 11]?
**A.** 3.12 ng/mL (≈ 0.00803 µM)

**Q.** And the MBC [4]?
**A.** 0.78 µg/mL (≈ 2.01 µM)

**Q.** And the MIC [4]?
**A.** 0.58 µg/mL (≈ 1.49 µM)

**Q.** What about the MBC [5] of the same molecule?
**A.** 0.78 µg/mL (≈ 2.01 µM)

**Q.** And the MIC [5]?
**A.** 0.39 µg/mL (≈ 1 µM)

**Q.** What about the MBC [6] of the same molecule?
**A.** 0.71 µg/mL (≈ 1.83 µM)

**Q.** And the MIC [6]?
**A.** 0.45 µg/mL (≈ 1.16 µM)

**Q.** And the MIC [3]?
**A.** 12.5 ng/mL (≈ 0.0322 µM)

**Q.** Which MIC [1, 8] does the source give for `O=c1nc(N2CCC3(CC2)OCCO3)sc2c([N+](=O)[O-])cc([N+](=O)[O-])cc12` [Compound 3, 2-(1,4-dioxa-8-azaspiro[4.5]dec-8-yl)-6,8-dinitro-1,3-benzothiazin-4-one] here?
**A.** 0.2 µg/mL (≈ 0.507 µM)

**Q.** And the MIC [2, 9]?
**A.** 1.5 ng/mL (≈ 0.0038 µM)

**Q.** And the MIC [3]?
**A.** 6 ng/mL (≈ 0.0152 µM)

**Q.** With `NNC(=O)c1ccncc1` [Isoniazid (INH), Isoniazid, reference compound] as the molecule, how does the MBC [4] read?
**A.** > 100 µg/mL

**Q.** And the MIC [4]?
**A.** > 100 µg/mL

**Q.** And the MBC ([4]; read-out: MBC (µg/mL) mean)?
**A.** > 100 µg/mL

**Q.** And the MIC ([4]; read-out: MIC (µg/mL) mean)?
**A.** > 100 µg/mL

**Q.** What about the MBC [5] of the same molecule?
**A.** > 100 µg/mL

**Q.** What about the MIC [5] of the same molecule?
**A.** > 100 µg/mL

**Q.** And the MBC ([5]; read-out: MBC (µg/mL) mean)?
**A.** > 100 µg/mL

**Q.** What about the MIC ([5]; read-out: MIC (µg/mL) mean) of the same molecule?
**A.** > 100 µg/mL

**Q.** And the Injury index ([7]; 25 mg/kg orally, daily 6 times per week, four-score scale, liver, spleen and lungs)?
**A.** 1,2

**Q.** What about the “Efficacy index (%)” value ([7]; 25 mg/kg orally, 100% - injury index of group / injury index of control x 100) of the same molecule?
**A.** 70,5%

**Q.** And the “right lung Culture, without dilution CFU” value [7, 12]?
**A.** ∼ 40 CFU

**Q.** And the “spleen Culture, without dilution CFU” value [7, 12]?
**A.** ∼ 40 CFU

**Q.** What about the Survival of animals ([7]; day of treatment 1, of 10 animals) of the same molecule?
**A.** 10

**Q.** What about the Survival of animals ([7]; day of treatment 2, of 10 animals) of the same molecule?
**A.** 10

**Q.** And the Survival of animals ([7]; day of treatment 3, of 10 animals)?
**A.** 10

**Q.** And the Survival of animals ([7]; day of treatment 4, of 10 animals)?
**A.** 10

**Q.** And the Survival of animals ([7]; day of treatment 5, of 10 animals)?
**A.** 10

**Q.** What about the Survival of animals ([7]; day of treatment 6, of 10 animals) of the same molecule?
**A.** 10

**Q.** And the Survival of animals ([7]; day of treatment 7, of 10 animals)?
**A.** 10

**Q.** What about the Survival of animals ([7]; day of treatment 8, of 10 animals) of the same molecule?
**A.** 10

**Q.** And the Survival of animals ([7]; day of treatment 9, of 10 animals)?
**A.** 10

**Q.** What about the Survival of animals ([7]; day of treatment 10, of 10 animals) of the same molecule?
**A.** 10

**Q.** What about the Survival of animals ([7]; day of treatment 11, of 10 animals) of the same molecule?
**A.** 10

**Q.** What about the Survival of animals ([7]; day of treatment 12, of 10 animals) of the same molecule?
**A.** 10

**Q.** What about the Survival of animals ([7]; day of treatment 13, of 10 animals) of the same molecule?
**A.** 10

**Q.** And the Survival of animals ([7]; day of treatment 14, of 10 animals)?
**A.** 10

**Q.** What about the Survival of animals ([7]; day of treatment 15, of 10 animals) of the same molecule?
**A.** 10

**Q.** And the Survival of animals ([7]; day of treatment 16, of 10 animals)?
**A.** 10

**Q.** And the Survival of animals ([7]; day of treatment 17, of 10 animals)?
**A.** 10

**Q.** And the Survival of animals ([7]; day of treatment 18, of 10 animals)?
**A.** 10

**Q.** What about the Survival of animals ([7]; day of treatment 19, of 10 animals) of the same molecule?
**A.** 10

**Q.** What about the Survival of animals ([7]; day of treatment 20, of 10 animals) of the same molecule?
**A.** 10

**Q.** What about the Survival of animals ([7]; day of treatment 21, of 10 animals) of the same molecule?
**A.** 10

**Q.** What about the Survival of animals ([7]; day of treatment 22, of 10 animals) of the same molecule?
**A.** 10

**Q.** And the Survival of animals ([7]; day of treatment 23, of 10 animals)?
**A.** 10

**Q.** What about the Survival of animals ([7]; day of treatment 24, of 10 animals) of the same molecule?
**A.** 10

**Q.** And the Survival of animals ([7]; day of treatment 25, of 10 animals)?
**A.** 10

**Q.** And the Survival of animals ([7]; day of treatment 26, of 10 animals)?
**A.** 10

**Q.** What about the Survival of animals ([7]; day of treatment 27) of the same molecule?
**A.** 100%

**Q.** What does the source list for `CC1OC2(CCN(c3nc(=O)c4cc(C(F)(F)F)cc([N+](=O)[O-])c4s3)CC2)OC1C` (stereo not drawn) [Compound 5, 2-(2,3-dimethyl-1,4-dioxa-8-azaspiro[4.5]dec-8-yl)-8-nitro-6-(trifluoromethyl)-1,3-benzothiazin-4-one]?
**A.** MIC [1, 10]: 0.00625 µg/mL (≈ 0.014 µM); MIC [2, 11]: 0.078 ng/mL (≈ 0.000175 µM); MBC [4]: 0.39 µg/mL (≈ 0.876 µM); MIC [4]: < 0.39 µg/mL; MBC [5]: 0.39 µg/mL (≈ 0.876 µM); MIC [5]: < 0.39 µg/mL; MBC [6]: 0.45 µg/mL (≈ 1.01 µM); MIC [6]: 0.39 µg/mL (≈ 0.876 µM); MIC [3]: 0.078 ng/mL (≈ 0.000175 µM)

**Q.** For `O=c1nc(N2CCC3(CC2)OCCCCO3)sc2c([N+](=O)[O-])cc([N+](=O)[O-])cc12` [Compound 7, 2-(7,12-dioxa-3-azaspiro[5.6]dodec-3-yl)-6,8-dinitro-1,3-benzothiazin-4-one], which MIC [1, 8] is on record?
**A.** 0.78 µg/mL (≈ 1.85 µM)

**Q.** And the MIC [2, 9]?
**A.** 3 ng/mL (≈ 0.0071 µM)

**Q.** And the MIC [3]?
**A.** 3 ng/mL (≈ 0.0071 µM)

**Q.** Which MIC [1, 10] does the source give for `N#Cc1cc([N+](=O)[O-])c2sc(N3CCC4(CC3)OCCO4)nc(=O)c2c1` [Compound 9, 2-(1,4-dioxa-8-azaspiro[4.5]dec-8-yl)-8-nitro-4-oxo-1,3-benzothiazine-6-carbonitrile] here?
**A.** 0.05 µg/mL (≈ 0.134 µM)

**Q.** What about the MIC [2, 11] of the same molecule?
**A.** 3.12 ng/mL (≈ 0.00833 µM)

**Q.** What about the MBC [4] of the same molecule?
**A.** 1.17 µg/mL (≈ 3.13 µM)

**Q.** What about the MIC [4] of the same molecule?
**A.** 0.78 µg/mL (≈ 2.08 µM)

**Q.** What about the MBC [5] of the same molecule?
**A.** 0.78 µg/mL (≈ 2.08 µM)

**Q.** And the MIC [5]?
**A.** 0.58 µg/mL (≈ 1.55 µM)

**Q.** What about the MBC [6] of the same molecule?
**A.** 0.75 µg/mL (≈ 2 µM)

**Q.** And the MIC [6]?
**A.** 0.52 µg/mL (≈ 1.39 µM)

**Q.** And the MIC [3]?
**A.** 25 ng/mL (≈ 0.0668 µM)

**Q.** Which MIC [1, 8] does the source give for `Cc1c([N+](=O)[O-])cc2c(=O)nc(N3CCC4(CC3)OCCO4)sc2c1[N+](=O)[O-]` [Compound 8, 2-(1,4-dioxa-8-azaspiro[4.5]dec-8-yl)-7-methyl-6,8-dinitro-1,3-benzothiazin-4-one] here?
**A.** 0.4 µg/mL (≈ 0.979 µM)

**Q.** What about the MIC [2, 9] of the same molecule?
**A.** 25 ng/mL (≈ 0.0612 µM)

**Q.** And the MIC [3]?
**A.** 25 ng/mL (≈ 0.0612 µM)

**Q.** Which MIC [1, 10] does the source give for `O=c1nc(N2CCC3(CC2)OCCO3)sc2c([N+](=O)[O-])cc(C(F)(F)F)cc12` [Compound 1, 2-(1,4-dioxa-8-azaspiro[4.5]dec-8-yl)-8-nitro-6-(trifluoromethyl)-1,3-benzothiazin-4-one] here?
**A.** 0.0125 µg/mL (≈ 0.0299 µM)

**Q.** And the MIC [2, 11]?
**A.** 3.12 ng/mL (≈ 0.00748 µM)

**Q.** And the MBC [4]?
**A.** 2.34 µg/mL (≈ 5.61 µM)

**Q.** And the MIC [4]?
**A.** 1.56 µg/mL (≈ 3.74 µM)

**Q.** What about the MBC [5] of the same molecule?
**A.** 2.34 µg/mL (≈ 5.61 µM)

**Q.** What about the MIC [5] of the same molecule?
**A.** 1.56 µg/mL (≈ 3.74 µM)

**Q.** And the MBC [6]?
**A.** 1.75 µg/mL (≈ 4.19 µM)

**Q.** What about the MIC [6] of the same molecule?
**A.** 1.17 µg/mL (≈ 2.8 µM)

**Q.** And the MIC [3]?
**A.** 12.5 ng/mL (≈ 0.0299 µM)

Reference: patent EP2181998B1, “New benzothiazinone derivative and its use as antibacterial agent” (priority 2006, dated 2007)
